Data taken from patent US20250346931A1, “METHODS FOR PRODUCING HALOGENATED COMPOUNDS” (BIGELOW LABORATORY FOR OCEAN SCIENCES, priority 2022, published 2025).
Read-outs that look alike come from different tables or passages of the source.

How the values were obtained:
[1] = tested on: rumen-derived microbial communities; assay: Inhibition of methane production in rumen-derived microbial culture; assay type: cell-based, dairy cattle; conditions: for IC50: Bos taurus, read-out: concentration giving 50% suppression of methane production
Experimental: FIG. 5 illustrates the production and testing process of small organic halogenated compounds for inhibition of methanogenesis. In this example, the small organic halogenated compounds produced by VBPO are incubated in a microbial culture system derived from rumen fluid obtained from dairy cattle, to determine their relative abilities at inhibiting methane production. Briefly, 1,1-dibromoacetone, co-product bromoform and derivative dibromomethane, were separately added to the culture systems. The rate of methane production was monitored in each reaction (FIGS. 6A-6C).

[2] = ciVCPO reaction velocity with PAA or H2O2 as peroxide source, Michaelis-Menten fit; assay type: biochemical
Description: This Example describes a method for utilizing peracetic acid as a substrate for production of small, halogenated organic compounds in lieu of hydrogen peroxide using ciVCPO. PAAM is a readily available source of peracetic acid, consisting of 32% w/v peracetic acid and 6% w/v hydrogen peroxide. As peracetic acid is not an efficient two electron reductant, and unlike hydrogen peroxide, cannot produce oxygen in the presence of hypochlorous acid and catalytic quantities of chloride ions, hydrogen peroxide must be removed to avoid oxygen production employing the enzyme catalase, derived from bovine liver.
The reaction velocity is fitted according to Michaelis-Menten kinetics to give v=f([PAA] or [H2O2]).

[3] = rumen-derived microbial communities

BrCBr [dibromomethane, reference compound]
IC50 [1, 3]: 150 nM

CC(=O)C(Br)Br [1,1-dibromoacetone]
IC50 [1]: 125000 nM | relative effectiveness for inhibiting methane production among compounds screened ([1]; compared with bromoform and dibromomethane): least effective

BrC(Br)Br [bromoform, reference compound]
IC50 [1, 3]: 200 nM

B1: ciVCPO: vanadium chloroperoxidase from Curvularia inaequalis produced in Pichia pastoris (protein, UniProt P49053 1-609, looked up)
Vanadium chloroperoxidase: MGSVTPIPLPKIDEPEEYNTNYILFWNHVGLELNRVTHTVGGPLTGPPLSARALGMLHLAIHDAYFSICPPTDFTTFLSPDTENAAYRLPSPNGANDARQAVAGAALKMLSSLYMKPVEQPNPNPGANISDNAYAQLGLVLDRSVLEAPGGVDRESASFMFGEDVADVFFALLNDPRGASQEGYHPTPGRYKFDDEPTHPVVLIPVDPNNPNGPKMPFRQYHAPFYGKTTKRFATQSEHFLADPPGLRSNADETAEYDDAVRVAIAMGGAQALNSTKRSPWQTAQGLYWAYDGSNLIGTPPRFYNQIVRRIAVTYKKEEDLANSEVNNADFARLFALVDVACTDAGIFSWKEKWEFEFWRPLSGVRDDGRPDHGDPFWLTLGAPATNTNDIPFKPPFPAYPSGHATFGGAVFQMVRRYYNGRVGTWKDDEPDNIAIDMMISEELNGVNRDLRQPYDPTAPIEDQPGIVRTRIVRHFDSAWELMFENAISRIFLGVHWRFDAAAARDILIPTTTKDVYAVDNNGATVFQNVEDIRYTTRGTREDPEGLFPIGGVPLGIEIADEIFNNGLKPTPPEIQPMPQETPVQKPVGQQPVKGMWEEEQAPVVKEAP
Vmax, PAA relative to Vmax, H2O2 ([2]; FIG. 13 legend): approximately twice | vmax and Km with PAA as substrate compared with hydrogen peroxide ([2]; constant NaCl 150 mM): higher vmax and Km than hydrogen peroxide
